Laboratory results reported in publication PMC8037161 (International Journal of Molecular Sciences, 2021).
Where “and” joins values, the source holds several entries; their conditions need not be identical. Identical values can stand only once. Like-named read-outs stand apart in the source and are kept apart here.

Columns and labels:
[1] = test system: pBR322 plasmid; experiment: Ethidium bromide assay, DNA-binding effect on plasmid pBR322; details: % fluorescence relative to controls
Description: Fluorescence readings are reported as % fluorescence relative to the controls.

[2] = test system: calf thymus DNA; experiment: Ethidium displacement assay, apparent binding constant, calf thymus DNA; details: apparent association constant, ± 0.2 × 10^5 M^−1
Method: (§1) The fluorescence of DNA solutions (calf thymus DNA, T4 coliphage DNA, poly(dA-dT)2 and poly(dG-dC)2 with the investigated compound (final concentrations 10, 50, 100 μM) was measured by fluorescence spectrophotometer Infinite M200 TECAN at room temperature according to the procedure described above. The determination of DNA-binding constants was described in previous articles. The apparent binding constant was calculated from KEtBr [EtBr] = Kapp [drug], where [drug] = the concentration of the tested compound at 50% reduction of fluorescence and KEtBr and [EtBr] are known. The results are reported as a percentage of fluorescence decreases in Table 1.

[3] = test system: T4 coliphage DNA; experiment: Ethidium displacement assay, apparent binding constant, T4 coliphage DNA; details: apparent association constant, ± 0.2 × 10^5 M^−1
Description: The values of binding constants in the range of 0.7–6.4 × 10^5 M^−1 for T4 coliphage DNA for derivatives 1–18 was evidence of their minor-groove selectivity, because the major groove of T4 coliphage DNA is blocked by a-glycosylation of the 5-(hydroxymethyl)cytidine residues. […] All of the compounds bound to AT-rich sequences weaker than netropsin but some of them bound stronger to GC-rich sequences, e.g., compounds 3, 6, and 10.
as §1

[4] = test system: poly(dA-dT)2; experiment: Ethidium displacement assay, apparent binding constant, poly(dA-dT)2; details: apparent association constant, ± 0.2 × 10^5 M^−1
Method: as §1

[5] = test system: poly(dG-dC)2; experiment: Ethidium displacement assay, apparent binding constant, poly(dG-dC)2; details: apparent association constant, ± 0.2 × 10^5 M^−1
Method: as §1

[6] = target: T1, recombinant human DHFR (Homo sapiens, UniProt P00374); experiment: Dihydrofolate reductase (DHFR) inhibition assay; assay type: biochemical; details: assay kit
T1 construct: purchased
T1 sequence (P00374 1-187): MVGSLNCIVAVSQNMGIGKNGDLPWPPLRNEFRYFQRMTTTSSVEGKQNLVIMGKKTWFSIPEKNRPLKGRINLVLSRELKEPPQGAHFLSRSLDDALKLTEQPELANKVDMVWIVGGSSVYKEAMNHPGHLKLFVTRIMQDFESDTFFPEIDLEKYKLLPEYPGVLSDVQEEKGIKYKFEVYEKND

[7] = test system: poly(dA-dT)2 (DNA, polymer) AT; experiment: ethidium bromide displacement, fluorescence; details: apparent; room temperature; ethidium bromide displaced; compound 10, 50, 100 µM
[8] = test system: poly(dG-dC)2 (DNA, polymer) GC; experiment: ethidium bromide displacement, fluorescence; details: apparent; room temperature; ethidium bromide displaced; compound 10, 50, 100 µM
[9] = test system: calf thymus DNA; parameters: method as in earlier work; details: reference values; KEtBr known (ref 25, 47); NT ref 48 (table row: ref 45); cited from earlier work
[10] = test system: T4 coliphage DNA; parameters: method as in earlier work; details: reference values; KEtBr known (ref 25, 47); NT ref 48 (table row: ref 45); cited from earlier work
[11] = test system: poly(dA-dT)2; parameters: method as in earlier work; details: reference values; KEtBr known (ref 25, 47); NT ref 48 (table row: ref 45); cited from earlier work
[12] = test system: poly(dG-dC)2; parameters: method as in earlier work; details: reference values; KEtBr known (ref 25, 47); NT ref 48 (table row: ref 45); cited from earlier work
[13] = test system: pBR322 plasmid; details: previous study; cited from earlier work

| Decrease of Fluorescence [1] | Kapp Poly (dA-dT)2 [4] [M⁻¹] | Kapp poly (dG-dC)2 [5] [M⁻¹] | IC50 [6] [µM] | Kapp [7] | Kapp [8] | SMILES | Kapp Calf Thymus DNA [2] [M⁻¹] | Kapp T4 DNA [3] [M⁻¹] | Kapp Calf Thymus DNA [9] [M⁻¹] | Kapp T4 DNA [10] [M⁻¹] | Kapp Poly (dA-dT)2 [11] | Kapp poly (dG-dC)2 [12] [M⁻¹] | DNA-binding activity expressed as % decrease of fluorescence [13] [%] |
| --- | --- | --- | --- | --- | --- | --- | --- | --- | --- | --- | --- | --- | --- |
| 56.58% | 310000 | 350000 | 10.59 ± 0.06 | 3.1 ± 0.2 × 10^5 M^−1 | 3.5 ± 0.2 × 10^5 M^−1 | COc1ccc(C(=O)Nc2ccc(N)nc2)cc1OC [Compound 8] | 250000 | 240000 | – | – | – | – | – |
| 43.85% | 890000 | 420000 | 0.97 ± 0.02 | 8.9 ± 0.2 × 10^5 M^−1 | 4.2 ± 0.2 × 10^5 M^−1 | COc1cc(NC(=O)/C=C/c2cc(OC)c(OC)c(OC)c2)ccc1N [Compound 14] | 490000 | 290000 | – | – | – | – | – |
| 66.89% | 340000 | 230000 | 3.02 ± 0.09 | 3.4 ± 0.2 × 10^5 M^−1 | 2.3 ± 0.2 × 10^5 M^−1 | COc1cc(OC)cc(C(=O)Nc2ccc(N)nc2)c1 [Compound 7] | 410000 | 210000 | – | – | – | – | – |
| 60.11% | 150000 | 210000 | 26.01 ± 0.02 | 1.5 ± 0.2 × 10^5 M^−1 | 2.1 ± 0.2 × 10^5 M^−1 | COc1cc(/C=C/C(=O)Nc2cnc(N)nc2)cc(OC)c1OC [Compound 12] | 210000 | 280000 | – | – | – | – | – |
| 57.77% | 270000 | 380000 | 0.88 ± 0.02 | 2.7 ± 0.2 × 10^5 M^−1 | 3.8 ± 0.2 × 10^5 M^−1 | COc1cc(/C=C/C(=O)Nc2ccc(Cl)c(N)c2)cc(OC)c1OC [Compound 16] | 130000 | 310000 | – | – | – | – | – |
| 64.89% | 390000 | 150000 | 56.05 ± 0.08 | 3.9 ± 0.2 × 10^5 M^−1 | 1.5 ± 0.2 × 10^5 M^−1 | COc1cccc(C(=O)Nc2ccc(N)nc2)c1 [Compound 9] | 390000 | 120000 | – | – | – | – | – |
| 68.82% | 310000 | 240000 | 12.01 ± 0.01 | 3.1 ± 0.2 × 10^5 M^−1 | 2.4 ± 0.2 × 10^5 M^−1 | COc1cc(/C=C/C(=O)Nc2ccc(N)nc2)cc(OC)c1OC [Compound 15] | 190000 | 230000 | – | – | – | – | – |
| 54.54% | 260000 | 250000 | 55.32 ± 0.02 | 2.6 ± 0.2 × 10^5 M^−1 | 2.5 ± 0.2 × 10^5 M^−1 | COc1cccc(C(=O)Nc2cnc(N)nc2)c1 [Compound 11] | 120000 | 310000 | – | – | – | – | – |
| 87.99% | 210000 | 130000 | 5.02 ± 0.03 | 2.1 ± 0.2 × 10^5 M^−1 | 1.3 ± 0.2 × 10^5 M^−1 | COc1cc(C(=O)Nc2ccc(N)c(Cl)c2)cc(OC)c1OC [Compound 4] | 230000 | 230000 | – | – | – | – | – |
| 68.85% | 430000 | 530000 | 10.13 ± 0.09 | 4.3 ± 0.2 × 10^5 M^−1 | 5.3 ± 0.2 × 10^5 M^−1 | COc1cc(C(=O)Nc2cc(N)ccc2F)cc(OC)c1OC [Compound 3] | 170000 | 410000 | – | – | – | – | – |
| 70.11% | 110000 | 470000 | 19.2 ± 0.01 | 1.1 ± 0.2 × 10^5 M^−1 | 4.7 ± 0.2 × 10^5 M^−1 | COc1cc(OC)cc(C(=O)Nc2cnc(N)nc2)c1 [Compound 10] | 260000 | 70000 | – | – | – | – | – |
| 100% | – | – | – | – | – | COc1cc(Cc2cnc(N)nc2N)cc(OC)c1OC [TMP, 2,4-diamino-5-(3,4,5-trimethoxybenzyl) pyrimidine, reference compound] | – | – | – | – | – | – | – |
| 42.99% | 450000 | 460000 | 2.09 ± 0.04 | 4.5 ± 0.2 × 10^5 M^−1 | 4.6 ± 0.2 × 10^5 M^−1 | COc1cc(/C=C/C(=O)Nc2ccc(N)c(I)c2)cc(OC)c1OC [Compound 18] | 580000 | 640000 | – | – | – | – | – |
| – | – | – | – | – | – | COc1cc(CCC(=O)Nc2cnc(N)nc2)cc(OC)c1OC [C] | – | – | – | – | – | – | 69.92 |
| 49.9% and 49.89% | 400000 | 340000 | 0.89 ± 0.07 | 4.0 ± 0.2 × 10^5 M^−1 | 3.4 ± 0.2 × 10^5 M^−1 | COc1cc(/C=C/C(=O)Nc2ccc(N)cc2)cc(OC)c1OC [Compound 13] | 190000 | 290000 | – | – | – | – | – |
| 72.56% | 130000 | 230000 | 30.02 ± 0.02 | 1.3 ± 0.2 × 10^5 M^−1 | 2.3 ± 0.2 × 10^5 M^−1 | COc1cc(C(=O)Nc2cc(N)ccc2Cl)cc(OC)c1OC [Compound 5] | 270000 | 100000 | – | – | – | – | – |
| 41.68% | 50000 | 250000 | 1.22 ± 0.05 | 0.5 ± 0.2 × 10^5 M^−1 | 2.5 ± 0.2 × 10^5 M^−1 | COc1cc(/C=C/C(=O)Nc2ccc(F)c(N)c2)cc(OC)c1OC [Compound 17] | 180000 | 290000 | – | – | – | – | – |
| 74.54% | 310000 | 360000 | 21.89 ± 0.03 | 3.1 ± 0.2 × 10^5 M^−1 | 3.6 ± 0.2 × 10^5 M^−1 | COc1cc(C(=O)Nc2ccc(N)c(I)c2)cc(OC)c1OC [Compound 1] | 300000 | 160000 | – | – | – | – | – |
| 100% | – | – | – | – | – | CN(Cc1cnc2nc(N)nc(N)c2n1)c1ccc(C(=O)N[C@@H](CCC(=O)O)C(=O)O)cc1 [MTX, methotrexate, reference compound] | – | – | – | – | – | – | – |

| SMILES | Decrease of Fluorescence [1] | Kapp Poly (dA-dT)2 [4] [M⁻¹] | Kapp poly (dG-dC)2 [5] [M⁻¹] | IC50 [6] [µM] | Kapp [7] | Kapp [8] | Kapp Calf Thymus DNA [2] [M⁻¹] | Kapp T4 DNA [3] [M⁻¹] | Kapp Calf Thymus DNA [9] [M⁻¹] | Kapp T4 DNA [10] [M⁻¹] | Kapp Poly (dA-dT)2 [11] | Kapp poly (dG-dC)2 [12] [M⁻¹] | DNA-binding activity expressed as % decrease of fluorescence [13] [%] |
| --- | --- | --- | --- | --- | --- | --- | --- | --- | --- | --- | --- | --- | --- |
| CC[n+]1c(-c2ccccc2)c2cc(N)ccc2c2ccc(N)cc21 [EtBr, Ethidium bromide] | 100% | – | – | – | – | – | – | – | 1e+07 | 1e+07 | 95^b* × 10^5 M^−1 | 9.9e+06 | – |
| COc1cc(C(=O)Nc2ccc(N)nc2)cc(OC)c1OC [Compound 6] | 50.44% | 250000 | 480000 | 0.99 ± 0.01 | 2.5 ± 0.2 × 10^5 M^−1 | 4.8 ± 0.2 × 10^5 M^−1 | 400000 | 130000 | – | – | – | – | – |
| COc1cc(C(=O)Nc2ccc(F)c(N)c2)cc(OC)c1OC [Compound 2] | 52.89% | 190000 | 300000 | 1.11 ± 0.02 | 1.9 ± 0.2 × 10^5 M^−1 | 3.0 ± 0.2 × 10^5 M^−1 | 260000 | 260000 | – | – | – | – | – |
